The test system of one data set is MAC15A. The data set can be described thus: In vitro cytotoxicity, MAC15A, 1 hour exposure. Type of data set: cell-based. Conditions: for % cells remaining: 1 × 10^4 cells/ml.
The target of a further data set is T1, human recombinant MMP-9 (Homo sapiens, UniProt P14780).
T1 construct: purchased Calbiochem (Calbiochem-Novabiochem Ltd, Nottingham, UK)
The data set can be described thus: In vitro enzyme incubation with recombinant MMP-9 (HPLC, MS/MS). Type of data set: biochemical. Conditions: HPLC and MS/MS. The procedure:
In vitro Enzyme Incubations
Compounds were incubated in vitro with purified recombinant enzyme (either MMP-9 or MMP-2) (Calbiochem, Nottingham, UK). Typically, compounds (drugs) were incubated at 5 μM concentrations using 10 μl of enzyme, 10μl of drug and 90 μl of buffer at 25° C. The buffer used consisted of 200 mM NaCl, 50 mM Tris, 5 mM CaCl2, 20 μM ZnSO4 and 0.05% Brij35 at pH 7.6.
At various time points 20 μl samples were taken and 60 μl of methanol added to precipitate proteins as described above and the metabolism of the compounds was analysed by HPLC (as above).

A further data set deals with T2, topo I (Homo sapiens, UniProt P11387).
T2 sequence (P11387 1-765): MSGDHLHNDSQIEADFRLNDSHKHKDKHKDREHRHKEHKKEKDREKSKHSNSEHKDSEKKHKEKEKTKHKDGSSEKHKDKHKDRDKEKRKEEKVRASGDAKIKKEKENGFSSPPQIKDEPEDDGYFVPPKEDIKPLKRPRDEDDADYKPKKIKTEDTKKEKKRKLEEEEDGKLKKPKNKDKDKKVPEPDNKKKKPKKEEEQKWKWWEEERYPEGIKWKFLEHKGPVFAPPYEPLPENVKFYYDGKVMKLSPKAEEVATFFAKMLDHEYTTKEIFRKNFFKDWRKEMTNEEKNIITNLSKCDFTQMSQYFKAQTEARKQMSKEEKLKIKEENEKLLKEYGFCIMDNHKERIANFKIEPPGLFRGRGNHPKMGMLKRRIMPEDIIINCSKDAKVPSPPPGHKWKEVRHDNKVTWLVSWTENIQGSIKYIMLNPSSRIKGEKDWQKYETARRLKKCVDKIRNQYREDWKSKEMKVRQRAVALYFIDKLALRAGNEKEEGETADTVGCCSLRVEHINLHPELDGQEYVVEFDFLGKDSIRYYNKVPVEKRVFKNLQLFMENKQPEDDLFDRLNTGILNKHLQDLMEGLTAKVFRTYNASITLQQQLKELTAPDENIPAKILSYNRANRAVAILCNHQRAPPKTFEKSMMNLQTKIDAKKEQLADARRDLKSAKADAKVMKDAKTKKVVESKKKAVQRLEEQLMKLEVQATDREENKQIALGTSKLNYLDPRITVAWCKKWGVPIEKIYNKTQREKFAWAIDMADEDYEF
Put plainly: Inhibition of topo I-mediated relaxation of pBR322 DNA. The class given is biochemical. To be noted: tested between 1-100 μM. Here is the method:
Neither example (8) [NU:UB187] (heptapeptide) nor its hexa-, penta-, or tetra-peptide metabolites {examples (7) [NU:UB 205], (6) [NU:UB 204] and (5) [NU:UB 186] respectively} inhibited the topo I- mediated relaxation of pBR322 DNA at concentrations up to 100 μM. […] (the preferred MMP-2 cleavage product of example (8) [NU:UB187] The topo I activities of example (2) [NU:UB 31] and example (1b) [NU:UB 197] bad previously been determined [Table 1].

The subject of data set [1] is calf thymus DNA. Put plainly: Fluorescence quenching, Ethidium Bromide displacement from calf thymus DNA. The class given is binding.
Data set [2] can be described thus: In vitro tumour incubations: metabolism by dilute HT1080 tumour homogenate (HPLC). The class given is in vitro ADME. To be noted: dilute HT1080 tumour homogenate (1:500). The procedure:
Separation was achieved using gradient reversed phase HPLC On a Lichrospher (25×4 mm) column.
Mobile phase A consisted of 10% acetonitrile: 90% TFA (0.05%) and mobile phase B of 60% acetonitrile: 40% TFA (0.05%). Optimum detection was at the λmax of 248 nm using a flow rate of 1.2 ml/min. The gradient profile was from 60% A to 5% A over 25 min.
Sample preparation for HPLC was by simple protein precipitation. 3 vols. of methanol were added to 1 vol. of sample (typically 100 μl) which was centrifuged at 3000 g for 5 min. The supernatant was injected directly onto the HPLC column.
In Vitro Tumour Incubations
Solid tumour (HTT1080—excised from NCI-Nu mice under a Home Office Licence) was homogenised (1:4) in MMP buffer. Tumour homogenates were incubated at 25° C. and compounds (drugs) were added to the homogenate to give a final concentration of 10 μM or 100 μM. Samples were taken at timed intervals and prepared for HPLC analysis as described above.
Where metabolism was so rapid tumour homogenates required dilution (to 1:500) before analysis.

Data set [3] relates to calf thymus DNA. The data set can be described thus: Fluorescence quenching, Hoechst Dye 33258 displacement from calf thymus DNA. Type of data set: binding.
Data set [4] concerns MAC15A adenocarcinoma of the colon. Put plainly: In vitro cytotoxicity against MAC15A adenocarcinoma of the colon, 96 hours exposure. The class given is cell-based. Conditions: Mus musculus, 96 h.

Where a SMILES comes first, the peptide text is derived from it. [ ]: non-standard residue; d: D form. The star is where a group is joined. NH(CH2)3NH(1-anthraquinonyl) = O=C1c2ccccc2C(=O)c2c(NCCCN*)cccc21

T1 sequence (P14780 94-707): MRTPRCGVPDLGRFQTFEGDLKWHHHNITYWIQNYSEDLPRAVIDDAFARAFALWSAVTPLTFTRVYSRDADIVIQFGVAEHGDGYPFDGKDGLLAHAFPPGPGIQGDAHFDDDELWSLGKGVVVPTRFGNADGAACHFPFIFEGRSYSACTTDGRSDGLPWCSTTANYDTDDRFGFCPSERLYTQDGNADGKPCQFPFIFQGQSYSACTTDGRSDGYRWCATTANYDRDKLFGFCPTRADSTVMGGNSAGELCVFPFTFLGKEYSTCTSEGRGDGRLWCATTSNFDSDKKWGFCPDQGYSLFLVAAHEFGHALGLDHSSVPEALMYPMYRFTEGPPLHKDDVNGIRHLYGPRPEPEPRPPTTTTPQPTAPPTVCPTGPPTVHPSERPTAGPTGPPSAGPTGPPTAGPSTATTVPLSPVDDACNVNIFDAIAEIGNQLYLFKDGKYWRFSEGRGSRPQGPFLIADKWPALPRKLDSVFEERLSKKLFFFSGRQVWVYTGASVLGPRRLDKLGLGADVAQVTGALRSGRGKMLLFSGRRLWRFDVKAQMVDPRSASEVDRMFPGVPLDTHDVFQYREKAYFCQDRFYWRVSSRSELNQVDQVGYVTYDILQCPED

In general, melting point refers to the temperature, or range, at which the solid turns liquid. What is called IC50 is the concentration that gives 50% inhibition. A lower IC50 goes with greater potency. `CC(C)C[C@H](NC(=O)[C@H](C)NC(=O)[C@H](C)NC(=O)[C@@H](C)N)C(=O)NCC(=O)N[C@@H](CC(C)C)C(=O)N1CCC[C@H]1C(=O)NCCCNc1cccc2c1C(=O)c1ccccc1C2=O.O=C(O)C(F)(F)F` [Example 8, 1-[3-(D-Alanyl-L-alanyl-L-alanyl-L-leucyl-glycyl-L-leucyl-L-prolylamino)-propylamino]anthraquinone trifluoroacetate] (H-[dA]AALGLP-{NH(CH2)3NH(1-anthraquinonyl)}) yielded a melting point of 166 °C. Also, in the data set on MAC15A (1 μM), the “% cells remaining” value is reported as 100%. Besides, the “% cells remaining” value in the data set with MAC15A (10 μM) is recorded as 100%. For the same compound, in the data set with MAC15A (100 μM), the “% cells remaining” value is 95%. This compound registered a concentration for half-maximal inhibition (IC50) with MAC15A (Mus musculus) of over 100 µM. In addition, the “cleavage product with MMP-9” value on human recombinant MMP-9 is listed as “cleavage to anthraquinonyl, spacer-linked tripeptide Example 4”. Further, the “LEVEL OF INHIBITION of topo I-mediated relaxation pBR322 DNA” value on topo I is “No inhibition of relaxation between 1-100 μM”. Further, the “QE50 (Ethidium Bromide displacement)” value in the data set on calf thymus DNA [1] (calf thymus DNA) turned out to be 17 µM. The “intercalation into DNA” value with calf thymus DNA [1] (refers to Table 3) is “not to intercalate into DNA”. In addition, in data set [2], the “major products / metabolite” value was “the cleavage product Example 4 and the anthraquinone Example 1a”; the rate of metabolism is recorded as 1.75 μmol/min/g tissue. The “QH50 (Hoechst Dye 33258 displacement)” value with calf thymus DNA [3] (calf thymus DNA) came out at 4 µM. Moreover, the “groove binding to DNA” value with calf thymus DNA [3] (in comparison to example (2) NU:UB 31) is “weak groove binding agent”. Besides, the half-maximal inhibitory concentration (IC50) in data set [4] stood at 36 µM.

For the origin of these results see patent US20040248765A1, “Tumour targeting prodrugs activated by metallo matrixproteinases” (priority 2001, published 2004).
